# Source: the supplement of paper PMC10307832
# What was measured:
# Assay in all cases: relative viability (nuclei count vs DMSO), 5 days (fraction); higher = more cells survive
# Tozasertib + Palbociclib = compound: Cc1cc(Nc2cc(N3CCN(C)CC3)nc(Sc3ccc(NC(=O)C4CC4)cc3)n2)n[nH]1 [Tozasertib] + CC(=O)c1c(C)c2cnc(Nc3ccc(N4CCNCC4)cn3)nc2n(C2CCCC2)c1=O [Palbociclib] (partner 0.5 µM)
# Procedure, shortened: (§1)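 Dosing by pin tool came one day after lung cancer cell lines were seeded in 1536-well plates, using either one drug or a fixed anchor-drug dose plus five library-drug doses (not always all listed) in √10 steps. After 5 days, nuclei were counted on 4× images. Relative viability is treated-well nuclei count divided by vehicle-well nuclei count, and values are medians of duplicate plates.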
# Tozasertib + Crizotinib = compound: Cc1cc(Nc2cc(N3CCN(C)CC3)nc(Sc3ccc(NC(=O)C4CC4)cc3)n2)n[nH]1 [Tozasertib] + C[C@@H](Oc1cc(-c2cnn(C3CCNCC3)c2)cnc1N)c1c(Cl)ccc(F)c1Cl [Crizotinib] (partner 1 µM)
# Procedure, shortened: as §1
# Tozasertib + Pemetrexed = compound: Cc1cc(Nc2cc(N3CCN(C)CC3)nc(Sc3ccc(NC(=O)C4CC4)cc3)n2)n[nH]1 [Tozasertib] + Nc1nc2[nH]cc(CCc3ccc(C(=O)N[C@@H](CCC(=O)O)C(=O)O)cc3)c2c(=O)[nH]1 [Pemetrexed] (partner 0.2 µM)
# Procedure, shortened: as §1
# Tozasertib + Decitabine = compound: Cc1cc(Nc2cc(N3CCN(C)CC3)nc(Sc3ccc(NC(=O)C4CC4)cc3)n2)n[nH]1 [Tozasertib] + Nc1ncn([C@H]2C[C@H](O)[C@@H](CO)O2)c(=O)n1 [Decitabine] (partner 2 µM)
# Procedure, shortened: as §1
# Tozasertib + Vorinostat = compound: Cc1cc(Nc2cc(N3CCN(C)CC3)nc(Sc3ccc(NC(=O)C4CC4)cc3)n2)n[nH]1 [Tozasertib] + O=C(CCCCCCC(=O)Nc1ccccc1)NO [Vorinostat] (partner 1 µM)
# Procedure, shortened: as §1
Cell Line,relative viability (Tozasertib + Palbociclib; first compound 0.004 µM),relative viability (Tozasertib + Palbociclib; first compound 0.01265 µM),relative viability (Tozasertib + Palbociclib; first compound 0.04 µM),relative viability (Tozasertib + Palbociclib; first compound 0.1265 µM),relative viability (Tozasertib + Crizotinib; first compound 0.004 µM),relative viability (Tozasertib + Crizotinib; first compound 0.01265 µM),relative viability (Tozasertib + Crizotinib; first compound 0.04 µM),relative viability (Tozasertib + Crizotinib; first compound 0.1265 µM),relative viability (Tozasertib + Pemetrexed; first compound 0.004 µM),relative viability (Tozasertib + Pemetrexed; first compound 0.01265 µM),relative viability (Tozasertib + Pemetrexed; first compound 0.04 µM),relative viability (Tozasertib + Pemetrexed; first compound 0.1265 µM),relative viability (Tozasertib + Decitabine; first compound 0.004 µM),relative viability (Tozasertib + Decitabine; first compound 0.01265 µM),relative viability (Tozasertib + Decitabine; first compound 0.04 µM),relative viability (Tozasertib + Decitabine; first compound 0.1265 µM),relative viability (Tozasertib + Vorinostat; first compound 0.004 µM),relative viability (Tozasertib + Vorinostat; first compound 0.01265 µM),relative viability (Tozasertib + Vorinostat; first compound 0.04 µM),relative viability (Tozasertib + Vorinostat; first compound 0.1265 µM)
NCI-H647,0.457,0.398,0.425,0.299,1.26,0.979,0.794,0.31,0.186,0.183,0.169,0.125,0.43,0.402,0.322,0.25,0.729,0.377,0.384,0.172
LC-2-ad,0.503,0.529,0.442,0.477,0.441,0.452,0.405,0.369,0.291,0.252,0.265,0.275,0.87,0.792,0.798,–,0.762,0.631,0.613,0.272
NCI-H441,0.222,0.186,0.213,0.203,0.706,0.591,0.828,0.628,0.264,0.235,0.251,0.237,0.226,0.222,0.25,0.261,0.852,0.823,0.845,0.766
NCI-H1666,0.644,0.62,0.663,0.612,0.974,1.27,0.958,0.578,0.843,0.921,0.846,0.816,0.746,0.68,0.678,0.521,0.988,1.06,1,0.961
NCI-H838,0.238,0.213,0.25,0.171,0.939,0.863,0.898,0.706,0.263,0.257,0.249,0.232,0.464,0.458,0.453,0.253,0.716,0.713,0.502,0.235
NCI-H2347,0.384,0.457,0.472,0.413,0.722,0.71,–,0.723,0.44,0.461,0.45,0.432,0.567,0.365,0.627,0.74,0.586,0.643,0.57,0.664
